Ki data for five molecules are collected here from BindingDB's records for doi:10.1007/s00213-002-1073-7 (WestfÄLische Wilhelms-Universit&Auml, 2002).

For assay [1], the target named is Delta-type opioid receptor (Homo sapiens, UniProt P41143).
In assay [2] the target is 5-hydroxytryptamine receptor 1B (Homo sapiens, UniProt P28222).
The target of assay [3] is 5-hydroxytryptamine receptor 2C (Homo sapiens, UniProt P28335).
The target in assay [4] is T1, Alpha-2A adrenergic receptor (Homo sapiens, UniProt P08913).
T1 sequence (P08913 whole entry): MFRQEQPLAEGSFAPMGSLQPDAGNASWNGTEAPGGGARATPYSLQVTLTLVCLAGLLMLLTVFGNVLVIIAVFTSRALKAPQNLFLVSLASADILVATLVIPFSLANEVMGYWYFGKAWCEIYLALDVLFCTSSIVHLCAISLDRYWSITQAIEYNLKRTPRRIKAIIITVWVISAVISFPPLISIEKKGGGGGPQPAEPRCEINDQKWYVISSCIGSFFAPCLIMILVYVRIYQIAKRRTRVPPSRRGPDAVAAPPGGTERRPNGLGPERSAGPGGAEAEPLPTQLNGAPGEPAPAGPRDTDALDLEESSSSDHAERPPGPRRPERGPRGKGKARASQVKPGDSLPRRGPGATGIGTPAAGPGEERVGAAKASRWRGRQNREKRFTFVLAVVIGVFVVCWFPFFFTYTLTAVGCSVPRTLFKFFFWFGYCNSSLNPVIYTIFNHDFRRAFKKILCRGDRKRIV

Sequence of 5-hydroxytryptamine receptor 2C (P28335 whole entry): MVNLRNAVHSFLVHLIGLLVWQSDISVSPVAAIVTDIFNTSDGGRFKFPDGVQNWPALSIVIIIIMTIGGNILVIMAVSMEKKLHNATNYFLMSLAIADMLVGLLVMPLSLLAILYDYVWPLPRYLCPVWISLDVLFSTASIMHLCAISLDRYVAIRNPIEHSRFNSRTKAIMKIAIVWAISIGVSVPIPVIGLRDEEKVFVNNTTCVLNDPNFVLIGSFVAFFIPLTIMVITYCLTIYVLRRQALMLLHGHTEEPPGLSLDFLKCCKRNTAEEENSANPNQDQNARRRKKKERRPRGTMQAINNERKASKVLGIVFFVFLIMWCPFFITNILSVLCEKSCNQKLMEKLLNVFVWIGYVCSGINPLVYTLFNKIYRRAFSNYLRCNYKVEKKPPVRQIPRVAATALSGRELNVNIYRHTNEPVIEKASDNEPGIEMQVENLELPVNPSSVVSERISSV
Sequence of Delta-type opioid receptor (P41143 whole entry): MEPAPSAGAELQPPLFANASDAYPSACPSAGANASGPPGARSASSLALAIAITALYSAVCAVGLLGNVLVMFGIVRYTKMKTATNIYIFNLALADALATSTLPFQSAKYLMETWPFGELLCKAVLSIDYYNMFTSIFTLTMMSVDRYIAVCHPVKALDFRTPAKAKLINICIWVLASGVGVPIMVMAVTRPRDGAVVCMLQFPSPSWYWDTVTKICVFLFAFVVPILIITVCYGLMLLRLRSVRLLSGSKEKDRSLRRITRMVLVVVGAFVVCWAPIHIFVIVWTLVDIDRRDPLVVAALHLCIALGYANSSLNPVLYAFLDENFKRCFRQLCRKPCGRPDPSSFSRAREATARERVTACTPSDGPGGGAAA
Sequence of 5-hydroxytryptamine receptor 1B (P28222 whole entry): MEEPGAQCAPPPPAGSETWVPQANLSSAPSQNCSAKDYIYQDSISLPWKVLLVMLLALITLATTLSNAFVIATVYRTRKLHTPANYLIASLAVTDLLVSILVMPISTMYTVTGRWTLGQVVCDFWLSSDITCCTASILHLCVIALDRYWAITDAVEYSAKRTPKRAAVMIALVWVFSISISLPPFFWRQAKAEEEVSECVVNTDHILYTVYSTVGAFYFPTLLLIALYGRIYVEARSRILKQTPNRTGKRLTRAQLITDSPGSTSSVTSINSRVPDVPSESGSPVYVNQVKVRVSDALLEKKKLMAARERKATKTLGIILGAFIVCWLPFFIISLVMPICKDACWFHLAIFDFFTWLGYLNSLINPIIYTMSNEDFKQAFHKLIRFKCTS

A word on the Ki: it is a measure of affinity in units of concentration, obtained from inhibition or displacement. For `O=c1cc(O)cc2oc(-c3ccc(O)c(-c4c(O)cc(O)c5c(=O)cc(-c6ccc(O)cc6)oc45)c3)cc(O)c1-2`, the Ki in assay [1] was 0.0365 µM; in assay [2], 4.09 µM; in assay [3] it was 2.56 µM; in assay [4] it was greater than 10 µM.
Molecule `CC(C)=CCC[C@]1(C)[C@@H](CC=C(C)C)C[C@]2(CC=C(C)C)C(=O)C(CC=C(C)C)C(=O)[C@]1(C(=O)C(C)C)C2=O` (stereo partly drawn) came in with a Ki in assay [4] greater than 10 µM.
`C[C@@H]1O[C@@H](Oc2c(-c3ccc(O)c(O)c3)oc3cc(O)cc(=O)c-3c2O)[C@H](O)[C@H](O)[C@H]1O`: in assay [4], the Ki is greater than 10 µM.
Still for that read-out and setting: the result for `O=c1c(O)c(-c2ccc(O)c(O)c2)oc2cc(O)cc(O)c12` [2-(3,4-dihydroxyphenyl)-3,5,7-trihydroxy-chromone;hydrate] reads greater than 10 µM.
Same read-out and setting: in the case of `C[C@@H]1O[C@@H](OC[C@H]2O[C@@H](Oc3c(-c4ccc(O)c(O)c4)oc4cc(O)cc(O)c4c3=O)[C@H](O)[C@@H](O)[C@@H]2O)[C@H](O)[C@H](O)[C@H]1O` [3-Rhamnoglucosylquercetin] it was 9.34 µM.
